Measured values as given in PubChem BioAssay AID256 (DTP/NCI, 2004).
Values joined by “and” are separate entries in the source; they are usually repeats but may differ in a detail not shown here. Equal values may be shown once. Inconclusive results and toxic doses are left out.

System: CD2F1 mice, L1210 leukemia ip, survival T/C
Assay: NCI In Vivo Anticancer Drug Screen. Data for tumor model L1210 Leukemia (intraperitoneal) in CD2F1 (CDF1) mice
Settings: higher = longer survival
Outline: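 Read-out first: treated-group measurement over vehicle-control measurement, expressed as a ratio. Animals bore a transplanted tumor line and were dosed with compound or vehicle.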

[1] = endpoint: mean survival time, dose: 25.0 mg/kg/injection, schedule: Q01DX001 (ip), vehicle: saline with Tween-80
[2] = endpoint: mean survival time, dose: 50.0 mg/kg/injection, schedule: Q01DX001 (ip), vehicle: saline with Tween-80
[3] = endpoint: mean survival time, dose: 100.0 mg/kg/injection, schedule: Q01DX009 (ip), vehicle: saline
[4] = endpoint: mean survival time, dose: 200.0 mg/kg/injection, schedule: Q01DX009 (ip), vehicle: saline
[5] = endpoint: mean survival time, dose: 50.0 mg/kg/injection, schedule: Q01DX009 (ip), vehicle: saline with Tween-80
[6] = endpoint: mean survival time, dose: 100.0 mg/kg/injection, schedule: Q01DX009 (ip), vehicle: saline with Tween-80
[7] = endpoint: mean survival time, dose: 100.0 mg/kg/injection, schedule: Q04DX003 (ip), vehicle: saline with Tween-80
[8] = endpoint: mean survival time, dose: 200.0 mg/kg/injection, schedule: Q04DX003 (ip), vehicle: saline with Tween-80

## O=[N+]([O-])O.O=[N+]([O-])O.[NH-]C(c1ccccc1)C([NH-])c1ccccc1.[Pt+2] (configuration not stated)
endpoint: mean survival time, dose: 6.25 mg/kg/injection, schedule: Q04DX003 (ip), vehicle: saline
  T/C: 168 % of control
endpoint: mean survival time, dose: 12.5 mg/kg/injection, schedule: Q04DX003 (ip), vehicle: saline with Tween-80
  T/C: 158 % of control
endpoint: mean survival time, dose: 12.5 mg/kg/injection, schedule: Q04DX003 (ip), vehicle: saline
  T/C: 189 % of control
endpoint: mean survival time, dose: 25.0 mg/kg/injection, schedule: Q04DX003 (ip), vehicle: saline with Tween-80
  T/C: 168 % of control
endpoint: mean survival time, dose: 25.0 mg/kg/injection, schedule: Q04DX003 (ip), vehicle: saline
  T/C: 195 % of control

## O=C1[C@@H]2C3C=CC([C@H]4C(=O)N(CO)C(=O)[C@@H]34)[C@@H]2C(=O)N1CO
endpoint: median survival time, dose: 25.0 mg/kg/injection, schedule: Q01DX005 (ip), vehicle: Klucel (hydroxypropylcellulose) (HPC)
  T/C: 107 % of control
endpoint: median survival time, dose: 50.0 mg/kg/injection, schedule: Q01DX005 (ip), vehicle: Klucel (hydroxypropylcellulose) (HPC)
  T/C: 109 % of control
endpoint: median survival time, dose: 200.0 mg/kg/injection, schedule: Q01DX005 (ip), vehicle: Klucel (hydroxypropylcellulose) (HPC)
  T/C: 101 % of control

## NC1CCCCC(O)CCCC1 (configuration not stated)
endpoint: mean survival time, dose: 12.5 mg/kg/injection, schedule: Q01DX001 (ip), vehicle: saline with Tween-80
  T/C: 95 % of control
[1]
  T/C: 92 % of control
[2]
  T/C: 97 % of control

## CC(O)C1NC(=S)N(c2ccccc2)C1=O (configuration not stated)
endpoint: mean survival time, dose: 75.0 mg/kg/injection, schedule: Q01DX001 (ip), vehicle: saline
  T/C: 100 % of control
endpoint: mean survival time, dose: 150.0 mg/kg/injection, schedule: Q01DX001 (ip), vehicle: saline
  T/C: 103 % of control
endpoint: mean survival time, dose: 300.0 mg/kg/injection, schedule: Q01DX001 (ip), vehicle: saline
  T/C: 103 % of control

## O=C(O)C1CCC=CCC1
endpoint: mean survival time, dose: 100.0 mg/kg/injection, schedule: Q04DX003 (ip), vehicle: other
  T/C: 103 % of control
endpoint: mean survival time, dose: 200.0 mg/kg/injection, schedule: Q04DX003 (ip), vehicle: other
  T/C: 94 % of control
endpoint: mean survival time, dose: 400.0 mg/kg/injection, schedule: Q04DX003 (ip), vehicle: other
  T/C: 89 % of control

## O=C(CCl)NCc1cn(C2CC(O)C(CO)O2)c(=O)[nH]c1=O (configuration not stated)
endpoint: mean survival time, dose: 5.6 mg/kg/injection, schedule: Q01DX005 (ip), vehicle: water
  T/C: 111 % of control
endpoint: mean survival time, dose: 11.25 mg/kg/injection, schedule: Q01DX005 (ip), vehicle: water
  T/C: 100 % of control
endpoint: mean survival time, dose: 22.5 mg/kg/injection, schedule: Q01DX005 (ip), vehicle: water
  T/C: 103 % of control
endpoint: mean survival time, dose: 45.0 mg/kg/injection, schedule: Q01DX005 (ip), vehicle: water
  T/C: 95 % of control
endpoint: mean survival time, dose: 90.0 mg/kg/injection, schedule: Q01DX005 (ip), vehicle: water
  T/C: 103 % of control

## NC1=NCN(C2OC(COC(=O)c3ccccc3)C(OC(=O)c3ccccc3)C2OC(=O)c2ccccc2)C(=O)N1 (configuration not stated)
endpoint: mean survival time, dose: 3.12 mg/kg/injection, schedule: Q01DX009 (ip), vehicle: saline
  T/C: 97 % of control and 108 % of control
endpoint: mean survival time, dose: 6.25 mg/kg/injection, schedule: Q01DX009 (ip), vehicle: saline
  T/C: 91 % of control and 102 % of control
endpoint: mean survival time, dose: 12.5 mg/kg/injection, schedule: Q01DX009 (ip), vehicle: saline
  T/C: 91 % of control and 100 % of control
endpoint: mean survival time, dose: 25.0 mg/kg/injection, schedule: Q01DX009 (ip), vehicle: saline
  T/C: 94 % of control and 97 % of control
endpoint: mean survival time, dose: 50.0 mg/kg/injection, schedule: Q01DX009 (ip), vehicle: saline
  T/C: 112 % of control and 100 % of control
[3]
  T/C: 122 % of control and 108 % of control
[4]
  T/C: 165 % of control

## N#CSC/C(=N\Nc1ccc([N+](=O)[O-])cc1[N+](=O)[O-])c1ccccc1
endpoint: mean survival time, dose: 100.0 mg/kg/injection, schedule: Q04DX003 (ip), vehicle: saline sonified
  T/C: 103 % of control
endpoint: mean survival time, dose: 200.0 mg/kg/injection, schedule: Q04DX003 (ip), vehicle: saline sonified
  T/C: 102 % of control
endpoint: mean survival time, dose: 400.0 mg/kg/injection, schedule: Q04DX003 (ip), vehicle: saline sonified
  T/C: 103 % of control

## O=C(c1ccccc1)C1CCCCC1
[3]
  T/C: 88 % of control
[4]
  T/C: 97 % of control
endpoint: mean survival time, dose: 400.0 mg/kg/injection, schedule: Q01DX009 (ip), vehicle: saline
  T/C: 92 % of control

## CC(=O)Nc1ccc2c(Nc3ccc(NS(C)(=O)=O)cc3)c3ccccc3nc2c1
endpoint: mean survival time, dose: 8.0 mg/kg/injection, schedule: Q01DX009 (ip), vehicle: saline with Tween-80
  T/C: 192 % of control
endpoint: mean survival time, dose: 12.0 mg/kg/injection, schedule: Q01DX009 (ip), vehicle: saline with Tween-80
  T/C: 203 % of control
endpoint: mean survival time, dose: 18.0 mg/kg/injection, schedule: Q01DX009 (ip), vehicle: saline with Tween-80
  T/C: 105 % of control
endpoint: mean survival time, dose: 100.0 mg/kg/injection, schedule: Q04DX003 (ip), vehicle: saline
  T/C: 122 % of control
endpoint: mean survival time, dose: 200.0 mg/kg/injection, schedule: Q04DX003 (ip), vehicle: saline
  T/C: 101 % of control

## N=c1ccn(C2OC(CO)C(O)C2O)c(=O)n1O (configuration not stated)
endpoint: mean survival time, dose: 16.0 mg/kg/injection, schedule: Q01DX008 (ip), vehicle: saline
  T/C: 156 % of control
endpoint: mean survival time, dose: 16.0 mg/kg/injection, schedule: Q01DX008 (oral), vehicle: saline
  T/C: 110 % of control
endpoint: mean survival time, dose: 32.0 mg/kg/injection, schedule: Q01DX008 (ip), vehicle: saline
  T/C: 161 % of control
endpoint: mean survival time, dose: 64.0 mg/kg/injection, schedule: Q01DX008 (ip), vehicle: saline
  T/C: 170 % of control
endpoint: mean survival time, dose: 128.0 mg/kg/injection, schedule: Q01DX001 (ip), vehicle: saline
  T/C: 101 % of control
endpoint: mean survival time, dose: 128.0 mg/kg/injection, schedule: Q01DX001 (oral), vehicle: saline
  T/C: 96 % of control
endpoint: mean survival time, dose: 128.0 mg/kg/injection, schedule: Q01DX008 (ip), vehicle: saline
  T/C: 176 % of control
endpoint: mean survival time, dose: 128.0 mg/kg/injection, schedule: Q01DX008 (oral), vehicle: saline
  T/C: 156 % of control
endpoint: mean survival time, dose: 128.0 mg/kg/injection, schedule: Q01DX009 (ip), vehicle: saline
  T/C: 206 % of control
endpoint: mean survival time, dose: 128.0 mg/kg/injection, schedule: Q04DX003 (oral), vehicle: saline
  T/C: 103 % of control
endpoint: mean survival time, dose: 256.0 mg/kg/injection, schedule: Q01DX001 (ip), vehicle: saline
  T/C: 102 % of control
endpoint: mean survival time, dose: 256.0 mg/kg/injection, schedule: Q01DX001 (oral), vehicle: saline
  T/C: 100 % of control
endpoint: mean survival time, dose: 256.0 mg/kg/injection, schedule: Q01DX009 (ip), vehicle: saline
  T/C: 214 % of control
endpoint: mean survival time, dose: 256.0 mg/kg/injection, schedule: Q04DX003 (oral), vehicle: saline
  T/C: 110 % of control
endpoint: mean survival time, dose: 512.0 mg/kg/injection, schedule: Q01DX001 (ip), vehicle: saline
  T/C: 111 % of control
endpoint: mean survival time, dose: 512.0 mg/kg/injection, schedule: Q01DX001 (oral), vehicle: saline
  T/C: 103 % of control
endpoint: mean survival time, dose: 512.0 mg/kg/injection, schedule: Q01DX009 (ip), vehicle: saline
  T/C: 120 % of control
endpoint: mean survival time, dose: 512.0 mg/kg/injection, schedule: Q01DX009 (oral), vehicle: saline
  T/C: 167 % of control
endpoint: mean survival time, dose: 512.0 mg/kg/injection, schedule: Q04DX003 (ip), vehicle: saline
  T/C: 153 % of control
endpoint: mean survival time, dose: 1024.0 mg/kg/injection, schedule: Q01DX001 (ip), vehicle: saline
  T/C: 108 % of control
endpoint: mean survival time, dose: 1024.0 mg/kg/injection, schedule: Q01DX001 (oral), vehicle: saline
  T/C: 122 % of control
endpoint: mean survival time, dose: 1024.0 mg/kg/injection, schedule: Q01DX009 (ip), vehicle: saline
  T/C: 116 % of control
endpoint: mean survival time, dose: 1024.0 mg/kg/injection, schedule: Q01DX009 (oral), vehicle: saline
  T/C: 210 % of control
endpoint: mean survival time, dose: 1024.0 mg/kg/injection, schedule: Q04DX003 (ip), vehicle: saline
  T/C: 155 % of control
endpoint: mean survival time, dose: 1024.0 mg/kg/injection, schedule: Q04DX003 (oral), vehicle: saline
  T/C: 155 % of control

## N#C/C(N)=C(\C#N)N=C1OCC(O)C(O)C1O (configuration not stated)
endpoint: mean survival time, dose: 12.5 mg/kg/injection, schedule: Q01DX005 (ip), vehicle: other
  T/C: 102 % of control
endpoint: mean survival time, dose: 25.0 mg/kg/injection, schedule: Q01DX005 (ip), vehicle: other
  T/C: 101 % of control
endpoint: mean survival time, dose: 50.0 mg/kg/injection, schedule: Q01DX005 (ip), vehicle: other
  T/C: 98 % of control
endpoint: mean survival time, dose: 100.0 mg/kg/injection, schedule: Q01DX005 (ip), vehicle: other
  T/C: 106 % of control
endpoint: mean survival time, dose: 200.0 mg/kg/injection, schedule: Q01DX005 (ip), vehicle: other
  T/C: 112 % of control

## C/C(=C/C#N)c1ccccc1
[5]
  T/C: 101 % of control
[6]
  T/C: 97 % of control
[7]
  T/C: 100 % of control
[8]
  T/C: 100 % of control

## OC(c1ccccc1)(C1SCCCS1)C1SCCCS1
[5]
  T/C: 94 % of control
[6]
  T/C: 97 % of control
endpoint: mean survival time, dose: 200.0 mg/kg/injection, schedule: Q01DX009 (ip), vehicle: saline with Tween-80
  T/C: 94 % of control

## COc1cc(C(=O)C=C(C(F)(F)F)C(F)(F)F)cc(OC)c1OC
[7]
  T/C: 101 % of control
[8]
  T/C: 98 % of control

## Nc1nc(N)c(-c2ccc(Cl)cc2)c(COc2ccc(C3(CCl)OCCO3)cc2)n1
[1]
  T/C: 94 % of control
[2]
  T/C: 102 % of control
endpoint: mean survival time, dose: 100.0 mg/kg/injection, schedule: Q01DX001 (ip), vehicle: saline with Tween-80
  T/C: 100 % of control
